ChEMBL document CHEMBL4138123, “Design, synthesis and biological evaluation of novel pyrazolochalcones as potential modulators of PI3K/Akt/mTOR pathway and inducers of apoptosis in breast cancer cells” (Eur J Med Chem, 2017)

Legend:
Assay type in all cases: functional
SNB-19 = test: Cytotoxicity against human SNB19 cells assessed as cell growth at 100 uM after 48 hrs by sulforhodamine B assay relative to control; details: SNB-19, 48 h, read-out: Activity
SF-268 [1] = test: Cytotoxicity against human SF268 cells assessed as cell growth at 0.01 uM after 48 hrs by sulforhodamine B assay relative to control; details: SF-268, 48 h, read-out: Activity
786-0 = test: Cytotoxicity against human 786-0 cells assessed as growth inhibition after 48 hrs by sulforhodamine B assay; details: 786-0, 48 h
RXF 393 [2] = test: Cytotoxicity against human RXF393 cells assessed as cell growth at 100 uM after 48 hrs by sulforhodamine B assay relative to control; details: RXF 393, 48 h, read-out: Activity
SR = test: Cytotoxicity against human SR cells assessed as cell growth at 100 uM after 48 hrs by sulforhodamine B assay relative to control; details: read-out: Activity
U-251 = test: Cytotoxicity against human U251 cells assessed as cell growth at 10 uM after 48 hrs by sulforhodamine B assay relative to control; details: U-251, 48 h, read-out: Activity
SF-268 [3] = test: Cytotoxicity against human SF268 cells assessed as cell growth at 0.1 uM after 48 hrs by sulforhodamine B assay relative to control; details: SF-268, 48 h, read-out: Activity
UO-31 [4] = test: Cytotoxicity against human UO31 cells assessed as cell growth at 1 uM after 48 hrs by sulforhodamine B assay relative to control; details: UO-31, 48 h, read-out: Activity
OVCAR-8 [5] = test: Cytotoxicity against human OVCAR8 cells assessed as cell growth at 0.01 uM after 48 hrs by sulforhodamine B assay relative to control; details: OVCAR-8, 48 h, read-out: Activity
Malme-3M = test: Cytotoxicity against human MALME-3M cells assessed as growth inhibition after 48 hrs by sulforhodamine B assay
MDA-MB-231 = test: Cytotoxicity against human MDA-MB-231 cells assessed as cell growth at 0.01 uM after 48 hrs by sulforhodamine B assay relative to control; details: MDA-MB-231, 48 h, read-out: Activity
OVCAR-4 = test: Cytotoxicity against human OVCAR4 cells assessed as growth inhibition after 48 hrs by sulforhodamine B assay; details: OVCAR-4, 48 h
SW-620 = test: Cytotoxicity against human SW620 cells assessed as cell growth at 0.01 uM after 48 hrs by sulforhodamine B assay relative to control; details: SW-620, 48 h, read-out: Activity
UACC-257 = test: Cytotoxicity against human UACC257 cells assessed as cell growth at 100 uM after 48 hrs by sulforhodamine B assay relative to control; details: UACC-257, 48 h, read-out: Activity
HCT-116 [6] = test: Cytotoxicity against human HCT116 cells assessed as growth inhibition after 48 hrs by sulforhodamine B assay; details: HCT-116, 48 h
SK-OV-3 = test: Cytotoxicity against human SKOV3 cells assessed as cell growth at 100 uM after 48 hrs by sulforhodamine B assay relative to control; details: SK-OV-3, 48 h, read-out: Activity
HT-29 [7] = test: Cytotoxicity against human HT-29 cells assessed as cell growth at 1 uM after 48 hrs by sulforhodamine B assay relative to control; details: HT-29, 48 h, read-out: Activity
UO-31 [8] = test: Cytotoxicity against human UO31 cells assessed as cell growth at 0.01 uM after 48 hrs by sulforhodamine B assay relative to control; details: UO-31, 48 h, read-out: Activity
OVCAR-8 [9] = test: Cytotoxicity against human OVCAR8 cells assessed as growth inhibition after 48 hrs by sulforhodamine B assay; details: OVCAR-8, 48 h
OVCAR-5 [10] = test: Cytotoxicity against human OVCAR5 cells assessed as cell growth at 0.01 uM after 48 hrs by sulforhodamine B assay relative to control; details: OVCAR-5, 48 h, read-out: Activity
SK-MEL-28 = test: Cytotoxicity against human SK-MEL-28 cells assessed as cell growth at 0.1 uM after 48 hrs by sulforhodamine B assay relative to control; details: SK-MEL-28, 48 h, read-out: Activity
A498 = test: Cytotoxicity against human A498 cells assessed as cell growth at 0.1 uM after 48 hrs by sulforhodamine B assay relative to control; details: A498, 48 h, read-out: Activity
RXF 393 [11] = test: Cytotoxicity against human RXF393 cells assessed as cell growth at 0.1 uM after 48 hrs by sulforhodamine B assay relative to control; details: RXF 393, 48 h, read-out: Activity
OVCAR-5 [12] = test: Cytotoxicity against human OVCAR5 cells assessed as growth inhibition after 48 hrs by sulforhodamine B assay; details: OVCAR-5, 48 h
SF-539 = test: Cytotoxicity against human SF539 cells assessed as cell growth at 100 uM after 48 hrs by sulforhodamine B assay relative to control; details: SF-539, 48 h, read-out: Activity
MCF7 [13] = test: Cytotoxicity against human MCF7 cells assessed as cell growth at 1 uM after 48 hrs by sulforhodamine B assay relative to control; details: MCF7, 48 h, read-out: Activity
HT-29 [14] = test: Cytotoxicity against human HT-29 cells assessed as cell growth at 0.1 uM after 48 hrs by sulforhodamine B assay relative to control; details: HT-29, 48 h, read-out: Activity
OVCAR-3 = test: Cytotoxicity against human OVCAR3 cells assessed as cell growth at 10 uM after 48 hrs by sulforhodamine B assay relative to control; details: OVCAR-3, 48 h, read-out: Activity
COLO 205 [15] = test: Cytotoxicity against human COLO205 cells assessed as cell growth at 1 uM after 48 hrs by sulforhodamine B assay relative to control; details: COLO 205, 48 h, read-out: Activity
COLO 205 [16] = test: Cytotoxicity against human COLO205 cells assessed as cell growth at 100 uM after 48 hrs by sulforhodamine B assay relative to control; details: COLO 205, 48 h, read-out: Activity
MCF7 [17] = test: Cytotoxicity against human MCF7 cells assessed as cell growth at 0.1 uM after 48 hrs by sulforhodamine B assay relative to control; details: MCF7, 48 h, read-out: Activity
K562 = test: Cytotoxicity against human K562 cells assessed as cell growth at 0.01 uM after 48 hrs by sulforhodamine B assay relative to control; details: K562, 48 h, read-out: Activity
HT-29 [18] = test: Cytotoxicity against human HT-29 cells assessed as cell growth at 10 uM after 48 hrs by sulforhodamine B assay relative to control; details: HT-29, 48 h, read-out: Activity
NCI-H322M = test: Cytotoxicity against human NCI-H322M cells assessed as growth inhibition after 48 hrs by sulforhodamine B assay
HCT-116 [19] = test: Cytotoxicity against human HCT116 cells assessed as cell growth at 1 uM after 48 hrs by sulforhodamine B assay relative to control; details: HCT-116, 48 h, read-out: Activity
OVCAR-8 [20] = test: Cytotoxicity against human OVCAR8 cells assessed as cell growth at 1 uM after 48 hrs by sulforhodamine B assay relative to control; details: OVCAR-8, 48 h, read-out: Activity

COc1ccc(C(=O)/C=C/c2cc(-c3cc(OC)c(OC)c(OC)c3)n[nH]2)cc1
growth at 100 µM (SNB-19): -6%
growth at 0.01 µM (SF-268 [1]): 91%
TGI (786-0): 4.13 µM
growth at 100 µM (RXF 393 [2]): -93%
growth at 100 µM (SR): -5%
growth at 10 µM (U-251): -98%
growth at 0.1 µM (SF-268 [3]): 91%
growth at 1 µM (UO-31 [4]): 77%
growth at 0.01 µM (OVCAR-8 [5]): 95%
TGI (Malme-3M): 3.85 µM
growth at 0.01 µM (MDA-MB-231): 104%
LC50 (OVCAR-4): > 100 µM
TGI (OVCAR-4): 8.32 µM
growth at 0.01 µM (SW-620): 99%
growth at 100 µM (UACC-257): -4%
LC50 (HCT-116 [6]): > 100 µM
TGI (HCT-116 [6]): 5.86 µM
growth at 100 µM (SK-OV-3): -41%
growth at 1 µM (HT-29 [7]): 95%
growth at 0.01 µM (UO-31 [8]): 87%
LC50 (OVCAR-8 [9]): > 100 µM
TGI (OVCAR-8 [9]): 8.26 µM
growth at 0.01 µM (OVCAR-5 [10]): 99%
growth at 0.1 µM (SK-MEL-28): 104%
growth at 0.1 µM (A498): 87%
growth at 0.1 µM (RXF 393 [11]): 90%
LC50 (OVCAR-5 [12]): 7.6 µM
TGI (OVCAR-5 [12]): 3.78 µM
growth at 100 µM (SF-539): -92%
growth at 1 µM (MCF7 [13]): 57%
growth at 0.1 µM (HT-29 [14]): 102%
growth at 10 µM (OVCAR-3): -72%
growth at 1 µM (COLO 205 [15]): 94%
growth at 100 µM (COLO 205 [16]): -81%
growth at 0.1 µM (MCF7 [17]): 93%
growth at 0.01 µM (K562): 97%
growth at 10 µM (HT-29 [18]): -58%
TGI (NCI-H322M): 4.07 µM
growth at 1 µM (HCT-116 [19]): 72%
growth at 1 µM (OVCAR-8 [20]): 86%

COc1cc(C(=O)/C=C/c2cc(-c3ccc4c(c3)OCO4)n[nH]2)cc(OC)c1OC
growth at 100 µM (SNB-19): -97%
growth at 0.01 µM (SF-268 [1]): 96%
GI50 (786-0): 1.84 µM
LC50 (786-0): 6.51 µM
TGI (786-0): 3.46 µM
growth at 100 µM (RXF 393 [2]): -92%
growth at 100 µM (SR): -17%
growth at 10 µM (U-251): -96%
growth at 0.1 µM (SF-268 [3]): 96%
growth at 1 µM (UO-31 [4]): 71%
growth at 0.01 µM (OVCAR-8 [5]): 98%
GI50 (Malme-3M): 1.85 µM
LC50 (Malme-3M): 15.3 µM
TGI (Malme-3M): 4.69 µM
growth at 0.01 µM (MDA-MB-231): 100%
GI50 (OVCAR-4): 0.88 µM
LC50 (OVCAR-4): 20.1 µM
TGI (OVCAR-4): 4.24 µM
growth at 0.01 µM (SW-620): 98%
growth at 100 µM (UACC-257): -97%
GI50 (HCT-116 [6]): 1.9 µM
LC50 (HCT-116 [6]): > 100 µM
TGI (HCT-116 [6]): 4.63 µM
growth at 100 µM (SK-OV-3): -98%
growth at 1 µM (HT-29 [7]): 96%
growth at 0.01 µM (UO-31 [8]): 85%
GI50 (OVCAR-8 [9]): 2.35 µM
LC50 (OVCAR-8 [9]): 24.8 µM
TGI (OVCAR-8 [9]): 6.37 µM
growth at 0.01 µM (OVCAR-5 [10]): 98%
growth at 0.1 µM (SK-MEL-28): 99%
growth at 0.1 µM (A498): 90%
growth at 0.1 µM (RXF 393 [11]): 83%
GI50 (OVCAR-5 [12]): 2.63 µM
LC50 (OVCAR-5 [12]): 76.8 µM
TGI (OVCAR-5 [12]): 9.6 µM
growth at 100 µM (SF-539): -85%
growth at 1 µM (MCF7 [13]): 53%
growth at 0.1 µM (HT-29 [14]): 97%
growth at 10 µM (OVCAR-3): -73%
growth at 1 µM (COLO 205 [15]): 95%
growth at 100 µM (COLO 205 [16]): -74%
growth at 0.1 µM (MCF7 [17]): 94%
growth at 0.01 µM (K562): 86%
growth at 10 µM (HT-29 [18]): -22%
GI50 (NCI-H322M): 2.09 µM
TGI (NCI-H322M): 6.25 µM
CC50 (NCI-H322M; read-out: LC50 (the source's name)): 24.3 µM
growth at 1 µM (HCT-116 [19]): 86%
growth at 1 µM (OVCAR-8 [20]): 93%
